Assay results as given in patent publication US11084803B2, “Activators of class I histone deacetylases (HDACs) and uses thereof” (Massachusetts Institute of Technology, priority 2011, dated 2021).
Entries after “also recorded” stand apart in the source; their conditions may differ.

Columns and labels:
[1] = system: DIV 14 cortical neurons; test: Neuronal excitotoxicity model, MAP2 staining of dendrites; type: cell-based; details: compound 20 h; 50 μM glutamate 1 h; p<0.01 for significant
Procedure: The neuroprotection potential of the candidate compounds were also tested using a neuronal excitoxicity model. DIV 14 cortical neurons were treated with the compounds for 20 h, 50 μM glutamate was added to the culture 1 h before processing the samples for immunocytochemistry. […] Ginkgetin was used as a positive control.

[2] = target: T1, recombinant HDAC1 (Homo sapiens, UniProt Q13547); test: Secondary HDAC1 microfluidics-based assay, 8-point dose response, substrate FAM-TSRHKacKL; type: biochemical; details: for Emax: read-out: Maximum activation % during dose response (50 μM maximum); for AC50 / activation of up to (HDAC1): dose response 50 μM to 0.02 μM
T1 construct: FLAG (C); purchased BPS Biosciences (San Diego, Calif.); host or cells: insect cells (Sf9)
T1 sequence (Q13547 whole entry): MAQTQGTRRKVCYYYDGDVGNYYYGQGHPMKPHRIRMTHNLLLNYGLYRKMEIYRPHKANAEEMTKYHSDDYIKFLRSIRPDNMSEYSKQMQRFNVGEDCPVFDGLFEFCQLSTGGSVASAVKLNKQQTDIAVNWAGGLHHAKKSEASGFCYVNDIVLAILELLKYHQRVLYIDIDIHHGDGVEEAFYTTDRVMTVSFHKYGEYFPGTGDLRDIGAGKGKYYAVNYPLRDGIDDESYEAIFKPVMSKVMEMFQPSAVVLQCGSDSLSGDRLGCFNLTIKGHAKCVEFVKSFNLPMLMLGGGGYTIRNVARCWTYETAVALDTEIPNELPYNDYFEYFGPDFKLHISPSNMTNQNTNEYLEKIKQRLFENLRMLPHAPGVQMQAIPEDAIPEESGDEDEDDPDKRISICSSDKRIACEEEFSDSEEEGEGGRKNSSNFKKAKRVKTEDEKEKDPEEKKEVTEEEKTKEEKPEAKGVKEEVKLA

[3] = system: HT-22 cells; test: Etoposide-induced DNA damage stress in HT-22 cells, cell viability; type: cell-based; details: 5 μM for DAC-001 and DAC-003, 10 μM for others; 3 h before 2 μM etoposide; 72 h; p<0.001
Procedure: (§1) HT-22 cells, a hippocampal neuron derived cell line, were used to model neurodegeneration. Two types of insults were used. […] Etoposide, a topoisomerase II inhibitor, stressed cells through DNA damage. These two types of stresses have been documented in neurodegenerative diseases.
Similarly, HT-22 cells were pre-incubated with compounds (5 μM for DAC-001 and DAC-003; 10 μM for others) for 3 h. Then, 2 μM etoposide was added to the culture medium. Cell viability was measured 72 h later (FIG. 5B).

[4] = target: T2, Recombinant, full-length human HDAC1 (Homo sapiens, UniProt Q13547); test: Primary HDAC1 high-throughput screen, microfluidics-based deacetylase assay, single concentration; type: biochemical; details: for Average activation % during HTS (10 μM): substrate FAM-TSRHKacKL; for Percent activation (%) Replicate 1 / Percent activation (%) Replicate 2: high-throughput screening, 6 h; for Average activation % during HTS (10 μM) / Percent activation (%) Replicate 1 / Percent activation (%) Replicate 2: 10 μM
T2 construct: FLAG (C); purchased BPS Biosciences (San Diego, Calif.); host or cells: insect cells (Sf9)
T2 sequence (Q13547 whole entry): as above
Procedure: Recombinant, full-length human HDAC1 (GenBank Accession No. NM_004964) with a C-terminal FLAG tag was produced by BPS Biosciences (San Diego, Calif.) using large-scale insect cell protein expression and purification in order to support a large-scale high-throughput screen (HTS).
Compounds were tested with a reaction time of 6 h with compounds tested at a single concentration (10 μM) in duplicate. As a positive control, the biflavonoid gingketin was chosen.
Compounds were tested in duplicate at 10 μM nominal final concentration in 384-well plate format. The reference activator compound, ginkgetin (50 μM), was included in duplicates in each HTS plate as a positive control condition, 24 negative control samples (DMSO only) were included in each plate to provide for the 0% activation baseline.
Within each HTS plate, the effect of individual compounds on the enzymatic activity of HDAC1 was calculated as % change in the conversion of the peptide substrate relative to the average substrate conversion value calculated across the 24 negative control samples.

[5] = system: histone lysine residues known to be HDAC1 targets in HEK293T cells; test: Histone acetylation in HEK293T cells by Western blot; type: cell-based, Human; details: 10 μM or 50 μM, 20 h
Procedure: DAC compounds were added to HEK293T cells for 20 h. Vehicle was DMSO. Histones were acid-extracted and analyzed by Western blot for Ac-H3K56, Ac-H4K12, Ac-H3K14 and Ac-H2B. Histone 3 was used as the loading control.
Next, what was tested was whether a treatment of HDAC1 activators can increase HDAC1 enzymatic activity in cultured cells. Human HEK293T cells were treated with compounds at different concentrations (10 μM or 50 μM) for 20 h. Histone proteins were extracted, and Western blotting was used to analyze the acetylation of certain histone lysine residues known to be HDAC1 targets.

[6] = system: HT-22 cells; test: Glutamate-induced oxidative stress in HT-22 cells, CellTiter-Glo viability; type: cell-based; details: compound 3 h before 2.5 mM glutamate; p<0.05 versus vehicle; 10 μM DAC-003
Procedure: as §1
HT-22 cells were treated with compounds for 3 h prior to the addition of 2.5 mM glutamate. Cell viability was measured by CellTiter-Glo assays (Promega) (FIG. 5A).

[7] = target: recombinant HDAC2 (Homo sapiens, UniProt Q92769); test: Microfluidics-based deacetylase assay with HDAC2; type: biochemical; details: dose response
recombinant HDAC2, sequence (Q92769 whole entry, species assumed): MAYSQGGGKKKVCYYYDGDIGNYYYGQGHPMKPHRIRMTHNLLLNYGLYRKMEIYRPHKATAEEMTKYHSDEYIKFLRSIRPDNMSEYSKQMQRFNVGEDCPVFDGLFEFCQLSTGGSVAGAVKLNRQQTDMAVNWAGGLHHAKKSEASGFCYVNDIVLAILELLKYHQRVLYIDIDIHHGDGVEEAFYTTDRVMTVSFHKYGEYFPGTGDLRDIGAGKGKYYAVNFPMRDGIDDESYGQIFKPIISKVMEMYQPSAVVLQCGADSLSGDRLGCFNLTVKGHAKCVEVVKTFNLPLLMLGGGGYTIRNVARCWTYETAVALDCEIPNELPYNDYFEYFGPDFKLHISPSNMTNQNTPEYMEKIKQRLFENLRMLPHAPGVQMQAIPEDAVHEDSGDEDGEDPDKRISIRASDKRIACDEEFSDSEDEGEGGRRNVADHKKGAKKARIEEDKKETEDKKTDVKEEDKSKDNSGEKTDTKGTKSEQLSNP
Procedure: (§2) Based upon the results of the HDAC1 activator screen performed, a total of 21 compounds (for structures, see FIGS. 6A to 6C) were initially selected as hits due to their ability to enhance the deacetylase activity of recombinant HDAC1. Those hits, designated as “DACs” (deacetylase activating compounds), were measured using a microfluidics-based assay with an acetylated peptidic substrate (FAM-TSRHKacKL) over a reaction time of 6 h. The 21 HTS hits plus two controls: ginkgetin (an activator) and TSA (trichostatin A, an inhibitor; for its structure, see FIG. 6A) were retested in an 8-point dose response ranging from 50 μM to 0.02 μM.
(§3) Microfluidics-based deacetylase assays were also performed using recombinant HDAC2, HDAC3, and HDAC8 to determine the selectivity of the compounds. Many of the confirmed compounds also activated HDAC2 isoform to a similar or even greater extent. Some compounds activated HDAC3 and inhibited the HDAC8 isoform.

[8] = target: recombinant HDAC3 (Homo sapiens, UniProt O15379); test: Microfluidics-based deacetylase assay with HDAC3; type: biochemical; design: dose or concentration left out as unconfirmed; details: read-out: maximal effect (activation of HDAC3)
recombinant HDAC3, sequence (O15379 whole entry, species assumed): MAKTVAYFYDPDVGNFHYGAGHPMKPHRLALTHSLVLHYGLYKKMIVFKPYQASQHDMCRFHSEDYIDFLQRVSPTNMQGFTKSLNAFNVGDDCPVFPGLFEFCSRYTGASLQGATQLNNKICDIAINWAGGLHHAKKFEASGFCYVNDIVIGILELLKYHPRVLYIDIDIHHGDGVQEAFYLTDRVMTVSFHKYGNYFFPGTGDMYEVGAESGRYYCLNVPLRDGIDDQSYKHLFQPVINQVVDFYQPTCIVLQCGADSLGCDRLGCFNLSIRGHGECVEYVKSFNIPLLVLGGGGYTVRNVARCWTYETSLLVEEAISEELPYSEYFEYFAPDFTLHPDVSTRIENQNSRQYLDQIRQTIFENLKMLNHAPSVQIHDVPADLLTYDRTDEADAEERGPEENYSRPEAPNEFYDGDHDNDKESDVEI
recombinant HDAC3, sequence (Q9Y618 395-489 partner limits assumed, species assumed): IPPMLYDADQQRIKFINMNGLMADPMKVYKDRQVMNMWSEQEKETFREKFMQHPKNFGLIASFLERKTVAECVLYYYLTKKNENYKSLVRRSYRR
Procedure: as §2, §3

[9] = 8-point dose response 50 μM to 0.02 μM, 6 h

| Emax [2, 9] | AC50 [2] | activation of up to (HDAC1) [2] | Average activation % during HTS (10 μM) [4] | conversion of peptidic substrate FAM-TSRHKacKL to FAM-TSRHKKL (microfluidic fluorescence reader trace) ([4]; FIG. 3A, 3B) | Percent activation (%) Replicate 1 [4] | Percent activation (%) Replicate 2 [4] | Emax at 10 µM ([2]; plateau at 10 μM, read-out: maximal effect (activation of HDAC1)) | Average effect (positive control) ([4]; ginkgetin 50 μM, 580 measurements, standard deviation: 4%) | AC50 [7] | Emax ([7]; read-out: maximal effect (activation of HDAC2)) | Emax [8] | Maximum activation % during dose response (50 μM maximum) [2, 9] | Compound | protection of neurons from excitotoxicity (retention of dendrites) [1] | protection against DNA damage stress (cell viability) [3] | levels of acetylated histones (Ac-H3K56, Ac-H3K14, Ac-H4K12, Ac-H2B) [5] | protection from oxidative stress (cell viability) [6] | effect on HDAC isoforms in dose response ([2]; all HDAC isoforms) |
| --- | --- | --- | --- | --- | --- | --- | --- | --- | --- | --- | --- | --- | --- | --- | --- | --- | --- | --- |
| 287% | 4.05 µM | up to 287% | 130.5% | increased conversion | 122.6% | 138.4% |  |  |  |  |  |  | Cc1ccc(C(=O)NC(=S)Nc2ccc(-c3ccc(CO)o3)cc2)cc1 [DAC-001] | significant protection | significantly protect cells from DSB-induced cell death; also recorded: significant protection | reduced the levels of Ac-H3K56, Ac-H3K14, Ac-H4K12 and Ac-H2B |  |  |
| 221% | 8.31 µM | ≤ 221% | 54.7% |  | 52.7% | 56.6% |  |  |  |  |  |  | O=C(NC(=S)Nc1ccc(-c2ccc(CO)o2)cc1)c1cccs1 [DAC-002] | trend of protection | significantly protect cells from DSB-induced cell death; also recorded: significant protection | reduced the levels of Ac-H3K56, Ac-H3K14, Ac-H4K12 and Ac-H2B |  |  |
| 34% |  |  | 24.6% |  | 24.2% | 24.9% |  |  |  |  |  |  | Cc1cccc2c1[nH]c1nc(N/N=C/c3ccc(O)c(O)c3)nnc12 [DAC-003] | trend of protection | significantly protect cells from DSB-induced cell death; also recorded: significant protection | reduced the levels of Ac-H3K56, Ac-H3K14, Ac-H4K12 and Ac-H2B | significantly protect cells from oxidative insults; also recorded: significantly protect cells from oxidative stress |  |
| 12% |  |  | 18.7% |  | 15.1% | 22.2% |  |  |  |  |  |  | CCC(=O)C1(Sc2nc3ccccc3[nH]2)CC(C)(C)OC1=O (stereo not shown) [DAC-009] |  | significantly protect cells from DSB-induced cell death; also recorded: significant protection | reduced the levels of Ac-H3K56, Ac-H3K14, Ac-H4K12 and Ac-H2B |  |  |
| 26% |  |  | 17.7% |  | 17.5% | 17.9% |  |  |  |  |  |  | COc1ccc(CNc2cc(C)ccc2C)c(OC)c1 [DAC-012] |  | significantly protect cells from DSB-induced cell death; also recorded: significant protection |  | trend of protection |  |
| 23% |  |  | 25.6% |  |  |  | 20% | 26% activation | 28 µM | 165% | 20% |  | COc1cc(O)c2c(=O)cc(-c3ccc(OC)c(-c4c(O)cc(O)c5c(=O)cc(-c6ccc(O)cc6)oc45)c3)oc2c1 [ginkgetin, reference compound] |  |  |  |  |  |
|  |  |  | 0% |  |  |  |  |  |  |  |  | 0% | trichostatin A [reference compound] |  |  |  |  | dose dependent inhibition of all HDAC isoforms |
